Consider 1 molecule from patent US20150175681A1 (priority 2010, published 2015).

Common to all, as to format: in vivo
Assay [1] deals with C. difficile (ATCC 43596 strain). To be noted: Example 5B.
For assay [2], the system named is C. difficile (ATCC 43596). To be noted: Example 5C.
In assay [3] the test system is C. difficile (ATCC 43596, strain 545).
[4] abbreviates: Example 5E, vancomycin 20 mg/kg.
Where [5] appears, read: Example 5E, vancomycin 20 mg/kg BID × 5 days.

As to `CN[C@H](CC(C)C)C(=O)N[C@H]1C(=O)N[C@@H](CC(N)=O)C(=O)N[C@H]2C(=O)N[C@H]3C(=O)N[C@H](C(=O)N[C@H](C(=O)O)c4cc(O)cc(O)c4-c4cc3ccc4O)[C@H](O)c3ccc(c(Cl)c3)Oc3cc2cc(c3O[C@@H]2O[C@H](CO)[C@@H](O)[C@H](O)[C@H]2O[C@H]2C[C@](C)(N)[C@H](O)[C@H](C)O2)Oc2ccc(cc2Cl)[C@H]1O` [Vancomycin], in assay [1] (37 days, vancomycin 20 mg/kg PO BID × 5 days, goat polyclonal Abs 1 mL/hamster, PA-38 + PA-41 50, 50 mg/kg, PA-39 + PA-41 50, 40 mg/kg IP Q2d × 4), the “% mortality” value worked out at 88%. For the same molecule, in assay [1] (doses as Table 2, 8 animals), the “number of hamster deaths, day of study 15” value amounted to 1; the “number of hamster deaths, day of study 18” value is reported as 5; the “number of hamster deaths, day of study 19” value is 1. Moreover, the mean body weights result in assay [1] (first week after infection) is listed as “declined significantly during the first week after infection”. In addition, the “hamsters found dead between Days 15 and 19” value in assay [1] (vancomycin 20 mg/kg BID Days 1-5) is reported as “seven of eight”. The “% mortality” value in assay [2] (40 days, vancomycin 20 mg/kg PO BID × 5 days, mAbs 50 mg/kg (combination 50, 50) IP Q2d × 4, 7 hamsters) is 100%. For the same molecule, in assay [2] (doses as Table 4), the “number of hamster deaths, day of study 12” value was 1; the “number of hamster deaths, day of study 14” value stood at 2; the “number of hamster deaths, day of study 15” value is recorded as 1; the “number of hamster deaths, day of study 18” value was 1. In addition, the “number of hamster deaths, day of study 19” value in assay [2] (doses as Table 4) is 2. The “mean body weights over the study” value in assay [3] (Example 5E, to day 39) was “decreased during the first week post-infection and then rebounded”. Also, in assay [3] (setting [4]), the “Day 40 Survival” value was determined as 0% and the “Median Survival” value was 20 days. Besides, in assay [3] (setting [5]), the “% mortality” value is 100%; the “number of hamster deaths, day of study 11 to 14” value is listed as 1; the “number of hamster deaths, day of study 18 to 20” value is recorded as 5; the “number of hamster deaths, day of study 22” value is 2. Moreover, in assay [3] (in vivo), the “cecal C. difficile, mean CFU” value is listed as 6.01±0.93 log10.
